# Measurements published in patent US20240041877A1, “DOSAGE REGIME AND METHOD FOR TREATING PULMONARY ARTERIAL HYPERTENSION” (Altavant Sciences GmbH, priority 2019, published 2024).
# Assay: Study KAR5585-101 Part 1 (SAD): plasma pharmacokinetics after a single oral dose of KAR5585, fasting and fed (incl. dose proportionality and food effect)
# Conditions: for half-life / AUC(0-t) / AUC / AUC(0-inf) / concentration at 12 h / Cmax / Tmax: human, po; for AUC: AUC0-tau; for AUC(0-inf): AUC0-∞; for Tmax: Median
# [1] = 100 mg to 700 mg dose (7-fold increase in dose), fasting
# [2] = 400 mg KAR5585, Cohort 3B (test) vs 3A (reference)
# [3] = 400 mg KAR5585 single dose, Cohorts 3B vs 3A
# [4] = 700 mg to 2000 mg (2.86-fold increase in dose), fasting
# [5] = 100 to 2000 mg KAR5585 single oral dose, fasting, plasma analyte = label
# [6] = KAR5417 after 100 mg KAR5585 single oral, fasted, Cohort 1, Geo. Mean
# [7] = KAR5417 after 100 mg KAR5585 single oral, fasted, Cohort 1, Mean
# [8] = KAR5417 after 200 mg KAR5585 single oral, fasted, Cohort 2, Geo. Mean
# [9] = KAR5417 after 200 mg KAR5585 single oral, fasted, Cohort 2, Mean
# [10] = KAR5417 after 400 mg KAR5585 single oral, fasted, Cohort 3A, Geo. Mean
# [11] = KAR5417 after 400 mg KAR5585 single oral, fasted, Cohort 3A, Mean
# [12] = KAR5417 after 400 mg KAR5585 single oral, fed, Cohort 3B, Geo. Mean
# [13] = KAR5417 after 400 mg KAR5585 single oral, fed, Cohort 3B, Mean
# [14] = KAR5417 after 700 mg KAR5585 single oral, fasted, Cohort 4, Geo. Mean
# [15] = KAR5417 after 700 mg KAR5585 single oral, fasted, Cohort 4, Mean
# [16] = KAR5417 after 1200 mg KAR5585 single oral, fasted, Cohort 5, Geo. Mean
# [17] = KAR5417 after 1200 mg KAR5585 single oral, fasted, Cohort 5, Mean
# [18] = KAR5417 after 2000 mg KAR5585 single oral, fasted, Cohort 6, Geo. Mean
# [19] = KAR5417 after 2000 mg KAR5585 single oral, fasted, Cohort 6, Mean
# [20] = plasma, 100 mg, KAR5417 after 100 mg KAR5585 single oral, fasted, Cohort 1, Geo. Mean
# [21] = plasma, 100 mg, KAR5417 after 100 mg KAR5585 single oral, fasted, Cohort 1, Mean
# [22] = plasma, 200 mg, KAR5417 after 200 mg KAR5585 single oral, fasted, Cohort 2, Geo. Mean
# [23] = plasma, 200 mg, KAR5417 after 200 mg KAR5585 single oral, fasted, Cohort 2, Mean
smiles,measurement,setting,value
"Nc1nc(O[C@H](c2ccc(Cl)cc2-c2ccccc2)C(F)(F)F)cc(N2CCC3(CC2)CN[C@H](C(=O)O)C3)n1 [KAR5417, (S)-8-(2-amino-6-((R)-1-(5-chloro-[1,1T-biphenyl]-2-yl)-2,2,2-trifluoroeth-oxy)pyrimidin-4-yl)-2,8-diazaspiro[4.5]decane-3-carboxylic acid]",fold increase in mean AUC0-24,[1],6.3 fold
same,fold increase in mean AUC0-inf,[1],6.8 fold
same,fold increase in mean Cmax,[1],7.27 fold
same,"AUC0-inf, Geometric LS Mean Ratio (fed/fasting)",[2],2.02
same,"AUC0-tau, Geometric LS Mean Ratio (fed/fasting)",[2],2.04
same,"exposure as assessed by AUC0-tau and AUC0-inf, fed relative to fasting",400 mg KAR5585 single dose,approximately 2 fold
same,"fold increase in Cmax, fed vs fasting",[3],1.8 fold
same,"fold increase in mean AUC0-inf, fed vs fasting",[3],1.8 fold
same,"peak mean concentration under fed relative to fasting conditions, % higher",[3],approximately 177%
same,fold increase in AUC0-24,[4],1.7 fold
same,fold increase in AUC0-inf,[4],1.81 fold
same,fold increase in Cmax,[4],1.38 fold
same,"Dose proportionality power model, AUC0-12: Intercept estimate",[5],14.5
same,"Dose proportionality power model, AUC0-inf: Intercept estimate",[5],12.3
same,"Dose proportionality power model, AUC0-tau: Intercept estimate",[5],6.54
same,"Dose proportionality power model, Cmax: Intercept estimate",[5],1.95
same,AUC0-24/D,[6],8.16 (hr*ng/mL)/mg
same,Cmax/D,[6],0.931 (ng/ml)/mg
same,AUC0-24/D,[7],8.47 (hr*ng/mL)/mg
same,Cmax/D,[7],1.07 (ng/ml)/mg
same,t1/2,[7],4.67 h
same,AUC0-24/D,[8],4.70 (hr*ng/mL)/mg
same,Cmax/D,[8],0.658 (ng/ml)/mg
same,AUC0-24/D,[9],5.81 (hr*ng/mL)/mg
same,Cmax/D,[9],0.801 (ng/ml)/mg
same,AUC0-24/D,[10],7.43 (hr*ng/mL)/mg
same,Cmax/D,[10],1.11 (ng/ml)/mg
same,AUC0-24/D,[11],8.12 (hr*ng/mL)/mg
same,Cmax/D,[11],1.21 (ng/ml)/mg
same,AUC0-24/D,[12],13.4 (hr*ng/mL)/mg
same,Cmax/D,[12],2.08 (ng/ml)/mg
same,AUC0-24/D,[13],13.6 (hr*ng/mL)/mg
same,Cmax/D,[13],2.15 (ng/ml)/mg
same,AUC0-24/D,[14],5.31 (hr*ng/mL)/mg
same,Cmax/D,[14],0.777 (ng/ml)/mg
same,AUC0-24/D,[15],7.58 (hr*ng/mL)/mg
same,Cmax/D,[15],1.11 (ng/ml)/mg
same,AUC0-24/D,[16],4.84 (hr*ng/mL)/mg
same,Cmax/D,[16],0.636 (ng/ml)/mg
same,AUC0-24/D,[17],5.66 (hr*ng/mL)/mg
same,Cmax/D,[17],0.747 (ng/ml)/mg
same,AUC0-24/D,[18],4.26 (hr*ng/mL)/mg
same,Cmax/D,[18],0.515 (ng/ml)/mg
same,AUC0-24/D,[19],4.54 (hr*ng/mL)/mg
same,Cmax/D,[19],0.542 (ng/ml)/mg
same,half-life,"in vivo, 700 mg",12.1 h
same,AUC(0-t),"plasma, 100 mg, AUC0-12, KAR5417 after 100 mg KAR5585 single oral, fasted, Cohort 1, Geo. Mean",686 ng·h/mL
same,AUC(0-t),"plasma, 100 mg, AUC0-12, KAR5417 after 100 mg KAR5585 single oral, fasted, Cohort 1, Mean",704 ng·h/mL
same,AUC(0-t),"plasma, 100 mg, AUC0-24, KAR5417 after 100 mg KAR5585 single oral, fasted, Cohort 1, Geo. Mean",816 ng·h/mL
same,AUC(0-t),"plasma, 100 mg, AUC0-24, KAR5417 after 100 mg KAR5585 single oral, fasted, Cohort 1, Mean",847 ng·h/mL
same,AUC,[20],605 ng·h/mL
same,AUC,[21],718 ng·h/mL
same,AUC(0-inf),[20],847 ng·h/mL
same,AUC(0-inf),[21],886 ng·h/mL
same,concentration at 12 h,"plasma, 100 mg, C12, KAR5417 after 100 mg KAR5585 single oral, fasted, Cohort 1, Geo. Mean",22.5 ng/mL
same,concentration at 12 h,"plasma, 100 mg, C12, KAR5417 after 100 mg KAR5585 single oral, fasted, Cohort 1, Mean",23.8 ng/mL
same,Cmax,[20],93.1 ng/mL
same,Cmax,[21],107 ng/mL
same,AUC(0-t),"plasma, 100 mg, Plasma AUC0-96, KAR5417 in plasma, 100 mg KAR5585 single oral dose, mean",889 ng·h/mL
same,half-life,"plasma, 100 mg, t1/2, KAR5417 after 100 mg KAR5585 single oral, fasted, Cohort 1, Geo. Mean",4.51 h
same,half-life,"plasma, 100 mg, t1/2, KAR5417 after 100 mg KAR5585 single oral, fasted, Cohort 1, Mean",4.7 h
same,Tmax,"plasma, 100 mg, KAR5417 after 100 mg KAR5585 single oral, fasted, Cohort 1",4 h
same,AUC(0-t),"plasma, 200 mg, AUC0-12, KAR5417 after 200 mg KAR5585 single oral, fasted, Cohort 2, Geo. Mean",771 ng·h/mL
same,AUC(0-t),"plasma, 200 mg, AUC0-12, KAR5417 after 200 mg KAR5585 single oral, fasted, Cohort 2, Mean",947 ng·h/mL
same,AUC(0-t),"plasma, 200 mg, AUC0-24, KAR5417 after 200 mg KAR5585 single oral, fasted, Cohort 2, Geo. Mean",940 ng·h/mL
same,AUC(0-t),"plasma, 200 mg, AUC0-24, KAR5417 after 200 mg KAR5585 single oral, fasted, Cohort 2, Mean",1160 ng·h/mL
same,AUC,[22],866 ng·h/mL
same,AUC,[23],1120 ng·h/mL
same,AUC(0-inf),[22],988 ng·h/mL
same,AUC(0-inf),[23],1230 ng·h/mL
same,concentration at 12 h,"plasma, 200 mg, C12, KAR5417 after 200 mg KAR5585 single oral, fasted, Cohort 2, Geo. Mean",27.3 ng/mL
same,concentration at 12 h,"plasma, 200 mg, C12, KAR5417 after 200 mg KAR5585 single oral, fasted, Cohort 2, Mean",32.9 ng/mL
same,Cmax,[22],132 ng/mL
same,Cmax,[23],160 ng/mL
same,AUC(0-t),"plasma, 200 mg, Plasma AUC0-96, KAR5417 in plasma, 200 mg KAR5585 single oral dose, mean",1240 ng·h/mL
same,half-life,"plasma, 200 mg, t1/2, KAR5417 after 200 mg KAR5585 single oral, fasted, Cohort 2, Geo. Mean",5.29 h
same,half-life,"plasma, 200 mg, t1/2, KAR5417 after 200 mg KAR5585 single oral, fasted, Cohort 2, Mean",5.4 h
same,Tmax,"plasma, 200 mg, KAR5417 after 200 mg KAR5585 single oral, fasted, Cohort 2",3 h
same,AUC(0-t),"plasma, 400 mg, AUC0-12, KAR5417 after 400 mg KAR5585 single oral, fasted, Cohort 3A, Geo. Mean",2460 ng·h/mL
same,AUC(0-t),"plasma, 400 mg, AUC0-12, KAR5417 after 400 mg KAR5585 single oral, fasted, Cohort 3A, Mean",2690 ng·h/mL
same,AUC(0-t),"plasma, 400 mg, AUC0-12, KAR5417 after 400 mg KAR5585 single oral, fed, Cohort 3B, Geo. Mean",4170 ng·h/mL
same,AUC(0-t),"plasma, 400 mg, AUC0-12, KAR5417 after 400 mg KAR5585 single oral, fed, Cohort 3B, Mean",4240 ng·h/mL
same,AUC(0-t),"plasma, 400 mg, AUC0-24, KAR5417 after 400 mg KAR5585 single oral, fasted, Cohort 3A, Geo. Mean",2970 ng·h/mL
same,AUC(0-t),"plasma, 400 mg, AUC0-24, KAR5417 after 400 mg KAR5585 single oral, fasted, Cohort 3A, Mean",3250 ng·h/mL
same,AUC(0-t),"plasma, 400 mg, AUC0-24, KAR5417 after 400 mg KAR5585 single oral, fed, Cohort 3B, Geo. Mean",5370 ng·h/mL
same,AUC(0-t),"plasma, 400 mg, AUC0-24, KAR5417 after 400 mg KAR5585 single oral, fed, Cohort 3B, Mean",5430 ng·h/mL
